Source: PMC6561105 (Journal of medicinal chemistry, 2019)
Counter-ions that a name gives are not always drawn. Marks after values point to notes of the source that are not given here. Blank lines part the entries; values can stand above or below the molecule they belong to.

Key:
[1] = test system: HOXA9/DNA binding (HBS, HOXA9-binding site); set-up: species or system human; conditions: ELISA-derived assay and EMSA, Figure 1; SAR discussion
K562 cells = experiment: Colony-forming assay K562; format: cell-based, human; conditions: 2.5μM, 10 days, 1000 cells/well, mean +/− s.e.m
HMG-box protein = HMG-box protein DNA binding; conditions: specificity control
[2] = test system: HOXA9-mediated transactivation; experiment: HOXA9-driven luciferase assay; format: cell-based, human; conditions: K562 transfected with pCMV-AD-HOXA9 and wild-type HBS reporter, 20μM, 48H
[3] = test system: HOXA9 binding site 5′-ATTTA; experiment: DNase I footprinting
MigA9 cells [4] = conditions: 2.5μM, 10 days; for MigA9 Number of colonies, Total: 1000 cells/well
[5] = test system: Itgam, Oasl2, Akap13, Arfgef1 expression in MigA9 cells; experiment: qRT-PCR of differentiation-associated genes; format: cell-based, murine; conditions: MigA9, 5 or 10μM, 48 hours
MigA9 and/or HT-29 cells = experiment: Cellular distribution by fluorescence microscopy; format: cell-based; conditions: intrinsic fluorescence; MigA9 20 μM 2h and/or HT-29 5μM 16H
HBS DNA sequence = experiment: Circular dichroism on HBS oligonucleotide; format: binding; conditions: 300-400 nm, increasing drug/DNA ratio
MigA9 cells [6] = experiment: Cell cycle and sub-G1 analysis; format: cell-based, murine
HOXA9/HBS complex = format: binding, human; conditions: from EMSA quantification

HOXA9/DNA binding inhibition (in words) [1]: inactive
Compound: N=C(N)c1ccc(-c2ccc(-c3ccc(C(=N)N)cc3)s2)cc1 [DB351]

Compound: N=C(N)c1ccc(-c2ccc(-c3nc4ccc(C(=N)N)cc4[nH]3)s2)cc1 [DB818]
K562 Number of colonies, Total (K562 cells): 448 +/− 17 | inhibition of DNA binding of the HMG-box protein (HMG-box protein): failed to inhibit | inhibition of HOXA9-mediated transactivation (luciferase) [2]: able to inhibit | recognition of 5′-ATTTA site in DNase I footprinting [3]: protected site was clearly evidenced | MigA9 Number of colonies, Total (MigA9 cells [4]): 101 | MigA9 colonies, BFU-E (%) (MigA9 cells [4]; share of total colonies): 3 (3%) | MigA9 colonies, Total (%) (MigA9 cells [4]; share of total colonies): 100% | over-expression of Itgam, Oasl2, Akap13 and Arfgef1 [5]: over-expression

Compound: N=C(N)c1ccc(-c2ccc(-c3nc4cc(C(=N)N)ccc4o3)o2)cc1 [DB828]
entry into cells and localization in the nucleus (MigA9 and/or HT-29 cells): localized to the nucleus | induced CD signal (HBS DNA sequence): only weak CD changes | inhibition of HOXA9-mediated transactivation (luciferase) [2]: failed | recognition of 5′-ATTTA site in DNase I footprinting [3]: failed to recognize | MigA9 Number of colonies, BFU-E (MigA9 cells [4]): 2 | MigA9 Number of colonies, CFU-GM (MigA9 cells [4]): 90 | MigA9 Number of colonies, CFU-M (MigA9 cells [4]): 16 | MigA9 Number of colonies, Total (MigA9 cells [4]): 170 | MigA9 colonies, Total (%) (MigA9 cells [4]; share of total colonies): 100% | over-expression of Itgam, Oasl2, Akap13 and Arfgef1 [5]: failed to achieve the similar results

recognition of 5′-ATTTA site in DNase I footprinting [3]: failed to recognize
Compound: N=C(Nc1ccc(-c2ccc(-c3ccc(NC(=N)c4ccccn4)cc3)[nH]2)cc1)c1ccccn1 [DB883]

Compound: N=C(N)c1ccc(-c2cccc(-c3nc4ccc(C(=N)N)cc4[nH]3)c2)cc1 [DB911]
entry into cells and localization in the nucleus (MigA9 and/or HT-29 cells): could not be detected

inhibition of DNA binding of the HMG-box protein (HMG-box protein): failed to inhibit | inhibition of HOXA9-mediated transactivation (luciferase) [2]: able to inhibit | recognition of 5′-ATTTA site in DNase I footprinting [3]: protected site was clearly evidenced
Compound: N=C(N)c1cccc(-c2ccc(-c3nc4cc(C(=N)N)ccc4[nH]3)cc2)c1 [DB1055]
% SubG1 48H (MigA9 cells [6]; MigA9, 15 μM): 1.27 +/− 0.20% | K562 Number of colonies, Total (K562 cells): 467 +/− 12 | MigA9 Number of colonies, BFU-E (MigA9 cells [4]): 2 | MigA9 Number of colonies, CFU-G (MigA9 cells [4]): 58 | MigA9 Number of colonies, CFU-M (MigA9 cells [4]): 55 | MigA9 Number of colonies, Total (MigA9 cells [4]): 115 | MigA9 colonies, CFU-GM (%) (MigA9 cells [4]; share of total colonies): 0 (0%) | MigA9 colonies, Total (%) (MigA9 cells [4]; share of total colonies): 100%

recognition of 5′-ATTTA site in DNase I footprinting [3]: much weaker binding activity | sub-group for HOXA9/DNA binding inhibition (HOXA9/HBS complex): Medium
Compound: N=C(N)c1ccc(-c2ccc(-c3ccc4ccc(C(=N)N)cc4c3)cc2)cc1 [DB1177]

recognition of 5′-ATTTA site in DNase I footprinting [3]: much weaker binding activity
Compound: N=C(N)c1ccc(-c2ccc(-c3cc4ccc(C(=N)N)cc4[nH]3)o2)cc1 [DB1878]
% SubG1 48H (MigA9 cells [6]; MigA9, 10 μM): 15.94 +/− 1.80 ^$ % | % SubG1 48H (MigA9 cells [6]; MigA9, 15 μM): 27.88 +/− 16.14 * %

recognition of 5′-ATTTA site in DNase I footprinting [3]: protected site was clearly evidenced
Compound: N=C(N)c1ccc(-c2ccc(-c3cc4ccc(C(=N)N)cc4[nH]3)s2)cc1 [DB1879, 2-(5-(4-Carbamimidoylphenyl)thiophen-2-yl)-1H-indole-6-carboximidamide diydrochloride]

recognition of 5′-ATTTA site in DNase I footprinting [3]: protected site was clearly evidenced
Compound: N=C(N)c1ccc(-c2ccc(-c3cc4ccc(C(=N)N)cc4[nH]3)s2)nc1 [DB2529, 2-(5-(5-Carbamimidoylpyridin-2-yl)thiophen-2-yl)-1H-indole-6-carboximidamide trihydrochloride]
